Reference: patent publication US6316485A, “1,5-diphenylpyrazole derivatives” (Fujisawa Pharmaceutical Co., Ltd., priority 1997, dated 2001)

Legend:
[1] = target: T1, Human COX-II (Homo sapiens, UniProt P35354); test: Human recombinant COX-II activity in vitro (PGE2 formation, radioimmunoassay); format: biochemical; conditions: recombinant human COX-II expressed in CHO cells; arachidonic acid 10 μM; PGE2 by radioimmunoassay
T1 construct: made in house; host or cells: stably transfected Chinese hamster ovary (CHO) cells; 1700×g supernatant of sonicated cells used as crude enzyme
T1 sequence (P35354 18-604): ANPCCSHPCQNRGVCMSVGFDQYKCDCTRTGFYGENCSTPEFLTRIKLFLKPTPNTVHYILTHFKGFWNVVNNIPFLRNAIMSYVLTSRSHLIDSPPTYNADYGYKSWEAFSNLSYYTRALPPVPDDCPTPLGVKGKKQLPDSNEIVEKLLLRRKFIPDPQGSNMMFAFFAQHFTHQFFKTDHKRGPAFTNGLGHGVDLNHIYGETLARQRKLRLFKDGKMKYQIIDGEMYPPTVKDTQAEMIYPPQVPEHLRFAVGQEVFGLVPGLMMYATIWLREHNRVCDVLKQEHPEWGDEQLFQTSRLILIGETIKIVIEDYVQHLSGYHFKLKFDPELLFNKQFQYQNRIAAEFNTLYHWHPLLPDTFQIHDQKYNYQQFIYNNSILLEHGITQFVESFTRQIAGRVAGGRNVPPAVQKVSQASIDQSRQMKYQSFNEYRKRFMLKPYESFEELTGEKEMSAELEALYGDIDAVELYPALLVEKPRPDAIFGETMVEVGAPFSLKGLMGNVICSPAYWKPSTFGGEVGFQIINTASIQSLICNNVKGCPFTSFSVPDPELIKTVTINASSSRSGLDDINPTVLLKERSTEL
Experimental: (§1) a. Preparation of the recombinant cyclooxygenase (COX)
(§2) The human cyclooxygenase COX-I and COX-II were expressed in transfected Chinese hamster ovary (CHO) cells. Monolayer cultures of semi-confluent CHO cells stably expressing COX-I and COX-II were washed twice and scraped into phosphate buffered saline (PBS). The cells were centrifuged at 200×g for 5 minutes and the cell pellet was sonicated in reaction buffer containing 100 mM Tris-HCl (pH 7.4), 2 μM hematin and 5 mM tryptophan. Broken cells were centrifuged for 5 minutes at 1700×g at 4° C. and the supernatants were used as crude enzymes.
(§3) Cyclooxygenase activities in the absence or presence of inhibitors were measured by determining the level of prostaglandin E2 (PGE2) synthesis from arachidonic acid. Enzymes (1 μg for COX-I and/or 3 μg for COX-II) in a total volume of 200 μl of reaction buffer were incubated in the absence and presence of various concentrations of inhibitors for 5 minutes at 30° C. The reaction was then started by the addition of arachidonic acid to the final concentration of 10 μM. The reaction was terminated by 50 μl of HCl (1N) after incubation at 30° C. for 5 minutes. PGE2 was extracted with ethyl acetate, concentrated under a stream of nitrogen and analyzed by a radio immunoassay kit (Amersham) according to the manufacture's instructions.
(§4) b. Assay for human recombinant COX-I and COX-II activity
(§5) COX activity was assayed as PGE2 formation using radioimmunoassay to detect the prostaglandin release. The appropriate COX enzyme was incubated in 0.1 M Tris-HCl buffer (pH 7.3) containing hematin and tryptophan with the addition of arachidonic acid (10 μM) for 5 minutes at 37° C. Compounds were pre-incubated with the enzyme for 5 minutes prior to the addition of arachidonic acid. Any reaction between the arachidonic acid and the enzyme was stopped after 5 minutes at 37° C. by addition of 20 μl of 1N HCl. PGE2 formation was measured by radioimmunoassay (Amersham).

[2] = target: T2, Human COX-I (Homo sapiens, UniProt P23219); test: Human recombinant COX-I activity in vitro (PGE2 formation, radioimmunoassay); format: biochemical; conditions: recombinant human COX-I expressed in CHO cells; arachidonic acid 10 μM; PGE2 by radioimmunoassay
T2 construct: made in house; host or cells: stably transfected Chinese hamster ovary (CHO) cells; 1700×g supernatant of sonicated cells used as crude enzyme
Experimental: as §1, §2, §3, §4, §5

[3] = system: Adjuvant Arthritis in Rats; test: Effect on Adjuvant Arthritis in Rats (antiinflammatory activity); format: in vivo, female Sprague-Dawley rats; conditions: 1.0 mg/kg, orally once a day for 23 days; paw volume on day 23 vs vehicle-treated controls

T2 sequence (P23219 24-599): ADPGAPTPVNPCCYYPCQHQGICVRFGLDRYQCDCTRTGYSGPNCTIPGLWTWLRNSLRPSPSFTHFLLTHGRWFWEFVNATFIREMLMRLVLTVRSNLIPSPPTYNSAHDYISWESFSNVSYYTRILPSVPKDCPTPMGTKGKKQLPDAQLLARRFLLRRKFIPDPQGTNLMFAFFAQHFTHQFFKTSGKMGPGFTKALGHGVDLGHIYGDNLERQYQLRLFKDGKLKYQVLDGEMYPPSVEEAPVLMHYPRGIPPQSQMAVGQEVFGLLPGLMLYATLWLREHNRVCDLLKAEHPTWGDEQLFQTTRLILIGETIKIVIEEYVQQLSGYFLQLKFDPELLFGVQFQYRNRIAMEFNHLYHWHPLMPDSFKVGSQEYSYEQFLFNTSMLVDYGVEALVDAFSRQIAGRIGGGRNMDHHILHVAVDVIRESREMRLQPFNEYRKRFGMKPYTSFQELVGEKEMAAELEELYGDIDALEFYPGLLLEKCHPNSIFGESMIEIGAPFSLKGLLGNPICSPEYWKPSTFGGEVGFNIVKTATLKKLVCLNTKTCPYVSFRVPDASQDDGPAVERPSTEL

SMILES	IC50 [1]	IC50 [2]	Inhibition of secondary lesion (uninjected paw) [3]
Cc1ccc(-n2nc(C(F)F)cc2-c2ccc(S(C)(=O)=O)cc2)cc1Br [3-(16), 1-(3-Bromo-4-methylphenyl)-3-(difluoromethyl)-5-[4-(methylsulfonyl)phenyl]pyrazole]	< 1000 nM	> 100 µM	–
COc1ccc(-n2nc(Cl)cc2-c2ccc(S(C)(=O)=O)cc2)cc1Cl [10-(8), 3-Chloro-1-(3-chloro-4-methoxyphenyl)-5-[4-(methylsulfonyl)phenyl]pyrazole]	< 1000 nM	> 100 µM	≥ 60%
Cc1cccc(-n2nc(C(F)(F)F)cc2-c2ccc(S(C)(=O)=O)cc2)c1 [Example 1, 1-(3-methylphenyl)-5-[4-(methylsulfonyl)phenyl]-3-(trifluoromethyl)pyrazole]	–	–	≥ 60%
Cc1cc(-n2nc(C#N)cc2-c2ccc(S(C)(=O)=O)cc2)ccc1F [Example 6, 1-(4-fluoro-3-methylphenyl)-5-[4-(methylsulfonyl)phenyl]pyrazole-3-carbonitrile]	< 1000 nM	> 100 µM	–
